Assay results taken from patent US8722589B2, “Use of 1-alkyl-5-oxopyrrolidine-3-carboxylic esters as gas hydrate inhibitors with improved biodegradability” (Clariant Finance (BVI) Limited, priority 2007, dated 2014).

assay: Kinetic gas hydrate inhibition in stirred steel autoclave (water/natural gas); conditions: 5000 ppm based on water phase; 50 bar natural gas; cooled 20° C. to 4° C.; water:gas 20:80
Procedure: (§1) To investigate the inhibiting action of the 1-alkyl-5-oxopyrrolidine-3-carboxylic esters, a stirred steel autoclave with temperature control, pressure and torque sensor of capacity 450 ml was used. For studies of kinetic inhibition, the autoclave was filled with distilled water and gas in a volume ratio of 20:80; for studies of agglomerate inhibition, condensate was additionally added. Subsequently, 50 bar of natural gas were injected.
At first, a pressure decrease corresponding to the thermal compression of the gas is observed. When the formation of gas hydrate nuclei occurs during the cooling time, the pressure measured falls, and a rise in the torque measured and a slight increase in the temperature are observed. […] When the mixture is heated, the gas hydrates decompose, so that the starting state of the experimental series is attained.
(§2) The measure used for the inhibiting action of the product is the time from the attainment of the minimum temperature of 4° C. until the first gas absorption (Tind) or the time until the torque rises (Tagg). Long induction times or agglomeration times indicate an effect as a kinetic inhibitor. The torque measured in the autoclave serves, in contrast, as a parameter for the agglomeration of the hydrate crystals.
Composition of the natural gas used:
The dosage in all tests was 5000 ppm based on the water phase.

Row | Compound | Tagg (time until the torque rises) [h] | Tind (time from attainment of 4° C. until first gas absorption) [h]
1 | CC(C)COC(=O)C1CC(=O)N(C)C1 (stereo not shown) [Example 1, isobutyl 1-methyl-5-oxopyrrolidine-3-carboxylate] | 11.0 | 10.9
2 | CCCCC(CC)COC(=O)C1CC(=O)N(C)C1 (stereo not shown) [Example 2, 2-ethylhexyl 1-methyl-5-oxopyrrolidine-3-carboxylate] | 11.7 | 11.5
3 | CN1CC(C(=O)OCC(COC(=O)C2CC(=O)N(C)C2)OC(=O)C2CC(=O)N(C)C2)CC1=O (stereo not shown) [Example 3, glyceryl tri(1-methyl-5-oxopyrrolidine-3-carboxylate)] | 12.5 | 12.0
4 | CN1CC(C(=O)OCC(CO)(CO)COC(=O)C2CC(=O)N(C)C2)CC1=O (stereo not shown) [Example 4, pentaerythritol di(1-methyl-5-oxopyrrolidine-3-carboxylate)] | 11.5 | 11.4
5 | CN1CC(C(=O)OCC(CO)(COCC(CO)(COC(=O)C2CC(=O)N(C)C2)COC(=O)C2CC(=O)N(C)C2)COC(=O)C2CC(=O)N(C)C2)CC1=O (stereo not shown) [Example 5, dipentaerythrityl tetra(1-methyl-5-oxopyrrolidine-3-carboxylate)] | 10.1 | 10.0
6 | CCCCOCCOCCOCCOC(=O)C1CC(=O)N(C)C1 (stereo not shown) [Example 6, butyltriglycol 1-methyl-5-oxopyrrolidine-3-carboxylate] | 13.4 | 13.1
7 | CC(C)COC(=O)C1CC(=O)N(CC(C)C)C1 (stereo not shown) [Example 10, isobutyl 1-isobutyl-5-oxopyrrolidine-3-carboxylate] | 17.0 | 16.1
8 | CCCCC(CC)COC(=O)C1CC(=O)N(CC(C)C)C1 (stereo not shown) [Example 11, 2-ethylhexyl 1-isobutyl-5-oxopyrrolidine-3-carboxylate] | 18.3 | 17.5
9 | CC(C)CN1CC(C(=O)OCC(COC(=O)C2CC(=O)N(CC(C)C)C2)OC(=O)C2CC(=O)N(CC(C)C)C2)CC1=O (stereo not shown) [Example 12, glyceryl tri(1-isobutyl-5-oxopyrrolidine-3-carboxylate)] | 18.8 | 18.1
10 | CC(C)CN1CC(C(=O)OCC(CO)(CO)COC(=O)C2CC(=O)N(CC(C)C)C2)CC1=O (stereo not shown) [Example 13, pentaerythrityl di(1-isobutyl-5-oxopyrrolidine-3-carboxylate)] | 17.4 | 16.9
11 | CCCCOCCOCCOCCOC(=O)C1CC(=O)N(CC(C)C)C1 (stereo not shown) [Example 15, butyltriglycol 1-isobutyl-5-oxopyrrolidine-3-carboxylate] | 17.2 | 16.1
12 | dipentaerythrityl tetra(1-isobutyl-5-oxopyrrolidine-3-carboxylate) [Example 14] | 15.9 | 15.3

assay: Agglomerate inhibition in stirred autoclave (water/white spirit/natural gas); conditions: 5000 ppm based on water phase; water and white spirit 1:2; 50 bar; 500 rpm; 4° C.
Procedure: as §1, §2
In order to test the action as agglomerate inhibitors, the test autoclave used above was initially charged with water and white spirit (20% of the volume in a ratio of 1:2) and, based on the water phase, 5000 ppm of the particular additive were added.
At an autoclave pressure of 50 bar and a stirrer speed of 500 rpm, the temperature was cooled from initially 20° C. within 3 hours to 4° C., then the autoclave was stirred at 4° C. for 18 hours and heated up again. In the course of this, the agglomeration time up to occurrence of gas hydrate agglomerates and the torque which occurred on the stirrer at that time were measured, the latter being a measure of the agglomeration of the gas hydrates.
The comparative substance employed was a commercially available antiagglomerant (quaternary ammonium salt).

Row | Compound | Mmax (torque on the stirrer) [Ncm] | Tagg (agglomeration time up to occurrence of gas hydrate agglomerates) [h]
13 | CCCCCCCC/C=C\CCCCCCCCN1CC(C(=O)OCC(C)C)CC1=O (stereo not shown) [Example 19, isobutyl 1-oleyl-5-oxopyrrolidine-3-carboxylate] | 1.2 | 6.0
14 | CCCCCCCC/C=C\CCCCCCCCN1CC(C(=O)OCC(CC)CCCC)CC1=O (stereo not shown) [Example 20, 2-ethylhexyl 1-oleyl-5-oxopyrrolidine-3-carboxylate] | 2.1 | 3.5
15 | CCCCCCCC/C=C\CCCCCCCCN1CC(C(=O)OCC(COC(=O)C2CC(=O)N(CCCCCCCC/C=C\CCCCCCCC)C2)OC(=O)C2CC(=O)N(CCCCCCCC/C=C\CCCCCCCC)C2)CC1=O (stereo not shown) [Example 21, glyceryl tri(1-oleyl-5-oxopyrrolidine-3-carboxylate)] | 2.0 | 2.9
16 | CCCCCCCC/C=C\CCCCCCCCN1CC(C(=O)OCC(CO)(CO)COC(=O)C2CC(=O)N(CCCCCCCC/C=C\CCCCCCCC)C2)CC1=O (stereo not shown) [Example 22, pentaerythrityl di(1-oleyl-5-oxopyrrolidine-3-carboxylate)] | 1.9 | 3.8
17 | CCCCCCCC/C=C\CCCCCCCCN1CC(C(=O)OCC(CO)(COCC(CO)(COC(=O)C2CC(=O)N(CCCCCCCC/C=C\CCCCCCCC)C2)COC(=O)C2CC(=O)N(CCCCCCCC/C=C\CCCCCCCC)C2)COC(=O)C2CC(=O)N(CCCCCCCC/C=C\CCCCCCCC)C2)CC1=O (stereo not shown) [Example 23, dipentaerythrityl tetra(1-oleyl-5-oxopyrrolidine-3-carboxylate)] | 2.0 | 3.8
18 | (oleyl alcohol+5 EO) 1-isobutyl-5-oxopyrrolidine-3-carboxylate [Example 16] | 1.0 | 5.9
19 | (oleyl alcohol+5 EO) 1-methyl-5-oxopyrrolidine-3-carboxylate [Example 7] | 0.9 | 6.5

assay: Biodegradability to OECD 306; conditions: not given

Row | Compound | Biodegradability 28 days (OECD 306)
20 | CN1CC(C(=O)OCC(COC(=O)C2CC(=O)N(C)C2)OC(=O)C2CC(=O)N(C)C2)CC1=O (stereo not shown) [Example 3, glyceryl tri(1-methyl-5-oxopyrrolidine-3-carboxylate)] | 90
21 | CC(C)CN1CC(C(=O)OCC(COC(=O)C2CC(=O)N(CC(C)C)C2)OC(=O)C2CC(=O)N(CC(C)C)C2)CC1=O (stereo not shown) [Example 12, glyceryl tri(1-isobutyl-5-oxopyrrolidine-3-carboxylate)] | 85
